Patent US20110092509A1, “Pharmaceutical Composition for Prevention or Treatment of Disease Associated with Tear Reduction” (Kissei Pharmaceutical, Co. Ltd., priority 2007, published 2011)
Counter-ions that a name gives are not always drawn.

Tests used:
Assay type in all cases: in vivo, rabbit
Japanese white rabbits [1] = assay: Measurement of quantity of protein in tear in rabbits (Micro BCA Protein Assay); settings: for Change in protein in tear: change before vs after instillation of 50 μL of 0.1 w/v % solution to both eyes, anesthetized male rabbits, mean
Procedure: (§1) Three male Japanese white rabbits (about 3 kg) were allocated to each group. Each 50 μL of ½ sulfate salt of Compound 1 (0.1% phosphate buffer solution, pH7.4), terbutaline sulfate (0.1% phosphate buffer solution, pH7.4) or a solvent thereof (a phosphate buffer, pH7.4) was administered to both eyes of the rabbit which was anesthetized with pentobarbital (40 mg/kg, i.v.). Two pieces each of pre-weighed filter paper (Wattman No. 41, 0.22 μm thick, 2.5×15 mm) were inserted to the lower conjunctival sac of the right or left eye, and the difference in weight of the filter papers before and after insertion (post-insertion weight−pre-insertion weight) was defined as the quantity of tear secretion. The quantity of tear secretion was measured for 5 min before drug administration and for 5 min at 5 min after drug administration. Fifty (50) μL of a local anesthetic agent, 0.4% oxybuprocaine hydrochloride (Santen Co.), was instilled into eyes 5 min before each measurement. Tear and the instilled local anesthetic were wiped immediately before the filter paper was inserted.
(§2) Filter papers recovered after each measurement were placed into tubes. A phosphate buffer (pH 7.4) (500 μL) was added to each of the tubes, and they were mixed by vortex mixer for 30 sec. After the filter papers were removed and the mixture was centrifuged at 470×g for 5 min, protein concentrations in supernatant were measured using Micro BCA Protein Assay Reagent Kit (Pierce Co.). The quantity of protein in tear was calculated based on the measured protein concentration and quantity of tear secretion. The difference in the quantity of tear secretion before administration of a solvent, ½ sulfate of Compound 1 or terbutaline sulfate and that after administration was defined as a change in the quantity of tear secretion or protein in tear, respectively. Each milligram of the change in the quantity of tear was taken as 1 μL.

[2] = test system: PAS positive goblet cells; assay: Mucin secretion from conjunctiva in rabbits: count of PAS positive goblet cells by impression cytology; settings: 0.1 w/v % instilled; for Count of PAS-positive goblet cells: percentage of the solvent group, decrease indicates facilitated mucin secretion from conjunctiva, mean
Procedure: In addition, at the same timing of measurement of the quantity of tear secretion, 3 mm diameter cellulose acetate filter paper was pressed on the conjunctiva for 30 sec. by impression cytology method, and periodic acid/Schiff (PAS) staining was performed with the recovered filter papers. After filter papers were cleared and embedded, the number of PAS positive goblet cells existing in a certain visual field of a microscope was counted.
Decreases in the count of PAS positive goblet cells indicate that mucin secretion from the conjunctiva is facilitated. Each value is mean of 4 animals, and ½ sulfate of Compound 1 increased extremely about 30% more in the quantity of tear secretion, about 200% more the quantity of protein in tear and about 50% more mucin secretion from conjunctiva in comparison with the solvent and terbutaline sulfate.

Japanese white rabbits [3] = assay: Measurement of quantity of tear secretion in rabbits (filter paper weight, ocular instillation); settings: for Tear secretion: change before vs 5 min after instillation of 50 μL of 0.1 w/v % solution (phosphate buffer, pH7.4) to both eyes, anesthetized male rabbits, 5 min measurement, mean
Procedure: as §1, §2

[4] = 0.1 w/v % instilled, rabbits, '% more'

| SMILES | Effect on quantity of protein in tear (in words) (Japanese white rabbits [1]; 0.1 w/v % instilled, rabbits) | Change in protein in tear (Japanese white rabbits [1]) [µg] | Effect on mucin secretion from conjunctiva (in words) ([2]; rabbits) | Count of PAS-positive goblet cells [2] [%] | Effect on quantity of tear secretion (in words) (Japanese white rabbits [3]; 0.1 w/v % instilled, rabbits) | Tear secretion (Japanese white rabbits [3]) [µL] | Increase in quantity of protein in tear in comparison with the solvent and terbutaline sulfate (Japanese white rabbits [1]; [4]) | Increase in mucin secretion from conjunctiva in comparison with the solvent and terbutaline sulfate ([2]; rabbits, '% more') | Increase in quantity of tear secretion in comparison with the solvent and terbutaline sulfate (Japanese white rabbits [3]; [4]) |
| --- | --- | --- | --- | --- | --- | --- | --- | --- | --- |
| C[C@H](Cc1ccc2c(c1)OC[C@H](C(=O)O)O2)NC[C@H](O)c1cccc(Cl)c1 [Compound N-5984, 6-[2-(R)-[[2-(R)-(3-chlorophenyl)-2-hydroxyethyl]amino]propyl]-2,3-dihydro-1,4-benzodioxine-2-(R)-carboxylic acid] | extremely increased | 2.72 | extremely increased | 57.1 | extremely increased | 4.42 |  |  |  |
| CC(C)(C)NCC(O)c1cc(O)cc(O)c1 (stereo not drawn) [Terbutaline sulfate, reference compound] |  | 1.04 |  | 77.3 |  | 3.80 |  |  |  |
| CN(C)C(=O)COc1ccc2c(c1)C[C@@H](NC[C@H](O)c1ccc(O)cc1)CC2 [½ sulfate of Compound 1, 2-[(2S)-2-[[(2R)-2-hydroxy-2-(4-hydroxyphenyl)ethyl]-amino]-1,2,3,4-tetrahydronaphthalen-7-yloxy]-N,N-dimethyl-acetamide] |  | 2.57 |  | 64.8 |  | 4.87 | about 200% | about 50% | about 30% |
